Laboratory results reported in ChEMBL document CHEMBL3822390, “Synthesis, characterization and anti-cancer activity of a peptide nucleolipid bioconjugate” (2016).

Key:
Format in all cases: functional
[1] = Cytotoxicity against human COLO205 cells assessed as cell growth at 7.25 uM after 48 hrs by SRB assay; conditions: COLO 205, 48 h, read-out: Activity
[2] = Cytotoxicity against human SF539 cells assessed as cell growth at 7.25 uM after 48 hrs by SRB assay; conditions: SF-539, 48 h, read-out: Activity
[3] = Cytotoxicity against human SNB75 cells assessed as cell growth at 7.25 uM after 48 hrs by SRB assay; conditions: SNB-75, 48 h, read-out: Activity
SK-MEL-5 = test: Cytotoxicity against human SK-MEL-5 cells assessed as cell growth at 7.25 uM after 48 hrs by SRB assay; conditions: SK-MEL-5, 48 h, read-out: Activity
[4] = Cytotoxicity against human UACC62 cells assessed as cell growth at 7.25 uM after 48 hrs by SRB assay; conditions: UACC-62, 48 h, read-out: Activity
[5] = Cytotoxicity against human OVCAR4 cells assessed as cell growth at 7.25 uM after 48 hrs by SRB assay; conditions: OVCAR-4, 48 h, read-out: Activity
[6] = Cytotoxicity against human SKOV3 cells assessed as cell growth at 7.25 uM after 48 hrs by SRB assay; conditions: SK-OV-3, 48 h, read-out: Activity
[7] = Cytotoxicity against human Caki1 cells assessed as cell growth at 7.25 uM after 48 hrs by SRB assay; conditions: CAKI-1, 48 h, read-out: Activity
[8] = Cytotoxicity against human UO31 cells assessed as cell growth at 7.25 uM after 48 hrs by SRB assay; conditions: UO-31, 48 h, read-out: Activity
MCF7 = test: Cytotoxicity against human MCF7 cells assessed as cell growth at 7.25 uM after 48 hrs by SRB assay; conditions: MCF7, 48 h, read-out: Activity
MDA-MB-231 = test: Cytotoxicity against human MDA-MB-231 cells assessed as cell growth at 7.25 uM after 48 hrs by SRB assay; conditions: MDA-MB-231, 48 h, read-out: Activity
CCRF-CEM = test: Cytotoxicity against human CCRF-CEM cells assessed as cell growth at 7.25 uM after 48 hrs by SRB assay; conditions: read-out: Activity
EKVX = test: Cytotoxicity against human EKVX cells assessed as cell growth at 7.25 uM after 48 hrs by SRB assay; conditions: read-out: Activity
NCI-H460 [9] = test: Cytotoxicity against human NCI-H460 cells assessed as cell growth at 7.25 uM after 48 hrs by SRB assay; conditions: NCI-H460, 48 h, read-out: Activity
A549 [10] = test: Cytotoxicity against human A549 cells assessed as cell mortality at 10 uM after 48 hrs by SRB assay; conditions: A549, 48 h
[11] = Cytotoxicity against human RPMI8226 cells assessed as cell growth at 10 uM after 48 hrs by SRB assay; conditions: RPMI-8226, 48 h, read-out: Activity
SR = test: Cytotoxicity against human SR cells assessed as cell growth at 10 uM after 48 hrs by SRB assay; conditions: read-out: Activity
[12] = Cytotoxicity against human HOP62 cells assessed as cell growth at 10 uM after 48 hrs by SRB assay; conditions: HOP-62, 48 h, read-out: Activity
NCI-H460 [13] = test: Cytotoxicity against human NCI-H460 cells assessed as cell growth at 10 uM after 48 hrs by SRB assay; conditions: NCI-H460, 48 h, read-out: Activity
HT-29 = test: Cytotoxicity against human HT-29 cells assessed as cell growth at 10 uM after 48 hrs by SRB assay; conditions: HT-29, 48 h, read-out: Activity
SK-MEL-2 [14] = test: Cytotoxicity against human SK-MEL-2 cells assessed as cell growth at 10 uM after 48 hrs by SRB assay; conditions: SK-MEL-2, 48 h, read-out: Activity
[15] = Cytotoxicity against human UACC257 cells assessed as cell growth at 10 uM after 48 hrs by SRB assay; conditions: UACC-257, 48 h, read-out: Activity
[16] = Cytotoxicity against human OVCAR3 cells assessed as cell growth at 10 uM after 48 hrs by SRB assay; conditions: OVCAR-3, 48 h, read-out: Activity
[17] = Cytotoxicity against human RXF393 cells assessed as cell growth at 10 uM after 48 hrs by SRB assay; conditions: RXF 393, 48 h, read-out: Activity
SN12C = test: Cytotoxicity against human SN12C cells assessed as cell growth at 10 uM after 48 hrs by SRB assay; conditions: read-out: Activity
[18] = Cytotoxicity against human UO31 cells assessed as cell growth at 10 uM after 48 hrs by SRB assay; conditions: UO-31, 48 h, read-out: Activity
[19] = Cytotoxicity against human DU145 cells assessed as cell growth at 10 uM after 48 hrs by SRB assay; conditions: DU-145, 48 h, read-out: Activity
[20] = Cytotoxicity against human Hs 578T cells assessed as cell growth at 10 uM after 48 hrs by SRB assay; conditions: read-out: Activity
MDA-MB-468 = test: Cytotoxicity against human MDA-MB-468 cells assessed as cell growth at 10 uM after 48 hrs by SRB assay; conditions: MDA-MB-468, 48 h, read-out: Activity
[21] = Cytotoxicity against human SF268 cells assessed as cell growth at 2.13 uM after 48 hrs by SRB assay; conditions: SF-268, 48 h, read-out: Activity
M14 = test: Cytotoxicity against human M14 cells assessed as cell growth at 2.13 uM after 48 hrs by SRB assay; conditions: M14, 48 h, read-out: Activity
MDA-MB-435 = test: Cytotoxicity against human MDA-MB-435 cells assessed as cell growth at 2.13 uM after 48 hrs by SRB assay; conditions: MDA-MB-435, 48 h, read-out: Activity
SK-MEL-2 [22] = test: Cytotoxicity against human SK-MEL-2 cells assessed as cell growth at 2.13 uM after 48 hrs by SRB assay; conditions: SK-MEL-2, 48 h, read-out: Activity
[23] = Cytotoxicity against human OVCAR4 cells assessed as cell growth at 2.13 uM after 48 hrs by SRB assay; conditions: OVCAR-4, 48 h, read-out: Activity
[24] = Cytotoxicity against human OVCAR8 cells assessed as cell growth at 2.13 uM after 48 hrs by SRB assay; conditions: OVCAR-8, 48 h, read-out: Activity
[25] = Cytotoxicity against human PC3 cells assessed as cell growth at 2.13 uM after 48 hrs by SRB assay; conditions: PC-3, 48 h, read-out: Activity
K562 = test: Cytotoxicity against human K562 cells assessed as cell growth at 2.13 uM after 48 hrs by SRB assay; conditions: K562, 48 h, read-out: Activity
A549 [26] = test: Cytotoxicity against human A549 cells assessed as cell growth at 2.13 uM after 48 hrs by SRB assay; conditions: A549, 48 h, read-out: Activity
NCI-H322M = test: Cytotoxicity against human NCI-H322M cells assessed as cell growth at 2.13 uM after 48 hrs by SRB assay; conditions: read-out: Activity
[27] = Cytotoxicity against human HCT116 cells assessed as cell growth at 2.13 uM after 48 hrs by SRB assay; conditions: HCT-116, 48 h, read-out: Activity

What does the source list for `CCCCCCCCCCCCCCCC(=O)NCCCC[C@H](NC(=O)[C@H](C)NC(=O)[C@H](CCCCN)NC(=O)[C@H](C)NC(=O)[C@H](CC(C)C)NC(=O)[C@H](CCCCN)NC(=O)[C@H](C)NC(=O)[C@H](CC(C)C)NC(=O)[C@H](CCCCN)NC(=O)[C@H](CCCCN)NC(=O)[C@H](C)NC(=O)[C@H](CC(C)C)NC(=O)[C@H](CCCCN)NC(=O)[C@H](C)NC(=O)[C@H](CC(C)C)NC(=O)[C@H](CCCCN)NC(=O)[C@@H](N)CC(=O)O)C(N)=O`?
growth at 7.25 µM [1]: 112%; growth at 7.25 µM [2]: 102%; growth at 7.25 µM [3]: 93.6%; growth at 7.25 µM (SK-MEL-5): 102%; growth at 7.25 µM [4]: 102%; growth at 7.25 µM [5]: 116%; growth at 7.25 µM [6]: 99.8%; growth at 7.25 µM [7]: 98.3%; growth at 7.25 µM [8]: 87.3%; growth at 7.25 µM (MCF7): 98.7%; growth at 7.25 µM (MDA-MB-231): 104%; growth at 7.25 µM (CCRF-CEM): 111%; growth at 7.25 µM (EKVX): 105%; growth at 7.25 µM (NCI-H460 [9]): 107%

For `CC(C)C[C@H](NC(=O)[C@H](CCCCN)NC(=O)[C@H](C)NC(=O)[C@H](CC(C)C)NC(=O)[C@H](CCCCN)NC(=O)[C@H](CCCCN)NC(=O)[C@H](C)NC(=O)[C@H](CC(C)C)NC(=O)[C@H](CCCCN)NC(=O)[C@H](C)NC(=O)[C@H](CC(C)C)NC(=O)[C@H](CCCCN)NC(=O)[C@@H](N)CC(=O)O)C(=O)N[C@@H](C)C(=O)N[C@@H](CCCCN)C(=O)N[C@@H](C)C(=O)N[C@@H](CCCCN)C(N)=O`, which mortality at 10 µM (A549 [10]) is on record?
The mortality at 10 µM was 19%.

What about the growth at 10 µM [11] of the same compound?
Its growth at 10 µM is 104%.

What about the growth at 10 µM (SR) of the same compound?
Its growth at 10 µM is 85%.

What about the growth at 10 µM [12] of the same compound?
The growth at 10 µM was 104%.

And the growth at 10 µM (NCI-H460 [13])?
Its growth at 10 µM is 117%.

And the growth at 10 µM (HT-29)?
Its growth at 10 µM is 94.8%.

And the growth at 10 µM (SK-MEL-2 [14])?
Its growth at 10 µM is 90.7%.

What about the growth at 10 µM [15] of the same compound?
Its growth at 10 µM is 71.8%.

What about the growth at 10 µM [16] of the same compound?
The growth at 10 µM was 100%.

What about the growth at 10 µM [17] of the same compound?
The growth at 10 µM was 110%.

What about the growth at 10 µM (SN12C) of the same compound?
The growth at 10 µM was 99%.

And the growth at 10 µM [18]?
The growth at 10 µM was 98%.

And the growth at 10 µM [19]?
Its growth at 10 µM is 109%.

And the growth at 10 µM [20]?
The growth at 10 µM was 107%.

And the growth at 10 µM (MDA-MB-468)?
The growth at 10 µM was 100%.

For `CCCCCCCCCCCCCCCCNCCO[C@H]1C[C@H](n2cc(C)c(=O)[nH]c2=O)O[C@@H]1C(=O)NCCCC[C@H](NC(=O)[C@H](C)NC(=O)[C@H](CCCCN)NC(=O)[C@H](C)NC(=O)[C@H](CC(C)C)NC(=O)[C@H](CCCCN)NC(=O)[C@H](C)NC(=O)[C@H](CC(C)C)NC(=O)[C@H](CCCCN)NC(=O)[C@H](CCCCN)NC(=O)[C@H](C)NC(=O)[C@H](CC(C)C)NC(=O)[C@H](CCCCN)NC(=O)[C@H](C)NC(=O)[C@H](CC(C)C)NC(=O)[C@H](CCCCN)NC(=O)[C@@H](N)CC(=O)O)C(N)=O`, which growth at 2.13 µM [21] is on record?
The growth at 2.13 µM was 100%.

What about the growth at 2.13 µM (M14) of the same compound?
The growth at 2.13 µM was 98.5%.

What about the growth at 2.13 µM (MDA-MB-435) of the same compound?
Its growth at 2.13 µM is 109%.

And the growth at 2.13 µM (SK-MEL-2 [22])?
The growth at 2.13 µM was 111%.

What about the growth at 2.13 µM [23] of the same compound?
Its growth at 2.13 µM is 112%.

And the growth at 2.13 µM [24]?
The growth at 2.13 µM was 96.8%.

What about the growth at 2.13 µM [25] of the same compound?
Its growth at 2.13 µM is 92.3%.

What about the growth at 2.13 µM (K562) of the same compound?
The growth at 2.13 µM was 106%.

And the growth at 2.13 µM (A549 [26])?
Its growth at 2.13 µM is 68.7%.

And the growth at 2.13 µM (NCI-H322M)?
The growth at 2.13 µM was 110%.

And the growth at 2.13 µM [27]?
Its growth at 2.13 µM is 99.9%.
